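96-well plates; 48 h exposure; 5 concentrations. Endpoints by linear interpolation between flanking doses. Not reached: highest tested concentration assigned. The concentration for full growth arrest is given as TGI.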
Legend:
Test in all cases: growth of human tumour cells (NCI), 48 h
[1] = system: UO-31 renal
[2] = system: KM12 colon
[3] = system: LOX IMVI melanoma
[4] = system: RPMI-8226 leukemia
[5] = system: RXF 393 renal
[6] = system: KM20L2 colon
[7] = system: NCI-H23 lung
[8] = system: M19-MEL melanoma
[9] = system: HOP-62 NSCLC
[10] = system: SF-268 CNS
[11] = system: DMS 114 small cell lung
[12] = system: OVCAR-8 ovarian
[13] = system: HOP-18 NSCLC
[14] = system: U251 CNS
[15] = system: SNB-75 CNS
[16] = system: SK-MEL-28 melanoma
[17] = system: HL-60(TB) leukemia
[18] = system: OVCAR-4 ovarian
[19] = system: K-562 leukemia
[20] = system: M14 melanoma
[21] = system: XF 498 CNS
[22] = system: 786-0 renal
[23] = system: SNB-78 CNS
[24] = system: MOLT-4 leukemia
[25] = system: HT29 colon
[26] = system: MALME-3M melanoma
[27] = system: UACC-257 melanoma
[28] = system: SF-539 CNS
[29] = system: UACC-62 melanoma
[30] = system: A549 NSCLC
[31] = system: SNB-19 CNS
[32] = system: HCT-116 colon
[33] = system: LXFL 529 NSCLC
[34] = system: SW-620 colon
[35] = system: HCC-2998 colon
[36] = system: SK-MEL-5 melanoma
[37] = system: IGROV1 ovarian
[38] = system: NCI-H460 lung
[39] = system: RXF-631 renal
[40] = system: OVCAR-5 ovarian
[41] = system: SK-MEL-2 melanoma
[42] = system: HCT-15 colon
[43] = system: DMS 273 small cell lung
[44] = system: A498 renal
[45] = system: CAKI-1 renal
[46] = system: SN12C renal
[47] = system: CCRF-CEM leukemia
[48] = system: DLD-1 colon
[49] = system: SF-295 CNS
[50] = system: SR leukemia
[51] = system: TK-10 renal
[52] = system: EKVX NSCLC
[53] = system: SK-OV-3 ovarian
[54] = system: ACHN renal
[55] = system: MCF7 breast
[56] = system: MDA-N
[57] = system: BT-549 breast
[58] = system: T-47D breast
[59] = system: NCI-H522 lung
[60] = system: NCI/ADR-RES ovarian
[61] = system: PC-3 prostate
[62] = system: OVCAR-3 ovarian
[63] = system: DU-145 prostate
[64] = system: NCI-H226 lung
[65] = system: MDA-MB-231 breast
[66] = system: COLO 205 colon
[67] = system: MDA-MB-435
[68] = system: HOP-92 NSCLC
[69] = system: HS 578T breast

With `CC(C)(C)c1cc(Cc2ccc([N+](C)(C)C)cc2)c(O)c(C(C)(C)C)c1` as the compound, how does the TGI [1] read?
Its TGI is > 100 µM.

What about the TGI [2] of the same compound?
Its TGI is 29.6 µM.

And the TGI [3]?
Its TGI is 30.6 µM.

What about the TGI [4] of the same compound?
Its TGI is 31.9 µM.

What about the TGI [5] of the same compound?
Its TGI is 38.4 µM.

And the TGI [6]?
The TGI was 74.8 µM.

And the TGI [7]?
Its TGI is 36.1 µM.

And the TGI [8]?
Its TGI is 26.6 µM.

And the TGI [9]?
Its TGI is 33.5 µM.

And the TGI [10]?
The TGI was 28.5 µM.

And the TGI [11]?
The TGI was 20.2 µM.

What about the TGI [12] of the same compound?
The TGI was 35.9 µM.

And the TGI [13]?
The TGI was 47.3 µM.

What about the TGI [14] of the same compound?
The TGI was 25.4 µM.

What about the TGI [15] of the same compound?
The TGI was 22.1 µM.

And the TGI [16]?
The TGI was 25 µM.

And the TGI [17]?
Its TGI is 8.27 µM.

And the TGI [18]?
Its TGI is > 100 µM.

What about the TGI [19] of the same compound?
The TGI was 28.1 µM.

What about the TGI [20] of the same compound?
The TGI was 40.9 µM.

What about the TGI [21] of the same compound?
Its TGI is 25.9 µM.

And the TGI [22]?
The TGI was 57.7 µM.

And the TGI [23]?
The TGI was 31.3 µM.

What about the TGI [24] of the same compound?
Its TGI is 26.1 µM.

And the TGI [25]?
The TGI was 32.7 µM.

And the TGI [26]?
The TGI was 34.2 µM.

What about the TGI [27] of the same compound?
Its TGI is 31.7 µM.

And the TGI [28]?
The TGI was 30.5 µM.

What about the TGI [29] of the same compound?
Its TGI is 27.9 µM.

And the TGI [30]?
The TGI was > 100 µM.

And the TGI [31]?
The TGI was 25.9 µM.

And the TGI [32]?
The TGI was 31.5 µM.

What about the TGI [33] of the same compound?
Its TGI is 27.1 µM.

And the TGI [34]?
Its TGI is 59.2 µM.

And the TGI [35]?
Its TGI is 29.9 µM.

What about the TGI [36] of the same compound?
Its TGI is 22.9 µM.

And the TGI [37]?
Its TGI is 28.1 µM.

And the TGI [38]?
The TGI was 37.9 µM.

And the TGI [39]?
Its TGI is > 100 µM.

And the TGI [40]?
The TGI was 59.7 µM.

What about the TGI [41] of the same compound?
The TGI was 30.2 µM.

What about the TGI [42] of the same compound?
The TGI was > 100 µM.

And the TGI [43]?
Its TGI is 22.2 µM.

And the TGI [44]?
Its TGI is > 100 µM.

What about the TGI [45] of the same compound?
Its TGI is > 100 µM.

And the TGI [46]?
Its TGI is 28.7 µM.

What about the TGI [47] of the same compound?
Its TGI is 29.1 µM.

And the TGI [48]?
Its TGI is > 100 µM.

And the TGI [49]?
The TGI was 67.5 µM.

What about the TGI [50] of the same compound?
Its TGI is 29.8 µM.

What about the TGI [51] of the same compound?
The TGI was 78.4 µM.

And the TGI [52]?
Its TGI is > 100 µM.

What about the TGI [53] of the same compound?
The TGI was 95.1 µM.

What about the TGI [54] of the same compound?
Its TGI is > 100 µM.

Which results are given for `Cc1ccccc1C1=C/C(=C(\SS/C(C(=O)c2ccc(OCC(=O)O)c(Cl)c2Cl)=C2\C=C(c3ccccc3C)SS2)C(=O)c2ccc(OCC(=O)O)c(Cl)c2Cl)SS1`?
TGI [1]: 51.1 µM; TGI [55]: > 90.7 µM; TGI [2]: 51 µM; TGI [3]: 21.1 µM; TGI [56]: > 100 µM; TGI [4]: 51.2 µM; TGI [5]: 55.2 µM; TGI [6]: > 100 µM; TGI [7]: 55.7 µM; TGI [8]: > 56.4 µM; TGI [9]: > 100 µM; TGI [10]: 45.9 µM; TGI [11]: 24.7 µM; TGI [12]: 77.1 µM; TGI [13]: 23.3 µM; TGI [57]: > 74.1 µM; TGI [14]: 35.9 µM; TGI [15]: 84 µM; TGI [16]: 69 µM; TGI [17]: 7.65 µM; TGI [18]: 64.3 µM; TGI [19]: 41.6 µM; TGI [20]: 49.2 µM; TGI [21]: 42.6 µM; TGI [22]: > 70 µM; TGI [23]: 51.4 µM; TGI [24]: 47.6 µM; TGI [25]: 83.7 µM; TGI [26]: > 87.6 µM; TGI [27]: 71.1 µM; TGI [28]: 44.9 µM; TGI [29]: 43.5 µM; TGI [58]: 49 µM; TGI [30]: > 94.2 µM; TGI [31]: > 84.5 µM; TGI [32]: 56.2 µM; TGI [59]: 16.8 µM; TGI [33]: 16.5 µM; TGI [34]: 67.7 µM; TGI [35]: > 100 µM; TGI [60]: > 100 µM; TGI [36]: 58.6 µM; TGI [37]: 38.5 µM; TGI [61]: 27.4 µM; TGI [38]: 60.2 µM; TGI [62]: 50.6 µM; TGI [39]: > 100 µM; TGI [63]: > 100 µM; TGI [40]: > 100 µM; TGI [64]: 42.1 µM; TGI [41]: 42.3 µM; TGI [65]: 47.5 µM; TGI [42]: 59.4 µM; TGI [43]: 36.7 µM; TGI [44]: 92.6 µM; TGI [45]: 72.9 µM; TGI [66]: 47.5 µM; TGI [67]: > 100 µM; TGI [46]: 50.6 µM; TGI [47]: 32.2 µM; TGI [48]: > 67.2 µM; TGI [49]: 87 µM; TGI [50]: 57.3 µM; TGI [51]: > 85.1 µM; TGI [52]: > 96.5 µM; TGI [68]: 13.8 µM; TGI [53]: > 100 µM; TGI [54]: 65.4 µM; TGI [69]: 51.9 µM

Source: PubChem BioAssay (NCI)
